According to PMC9555642 (PLoS ONE, 2022):

Legend:
HDAC8 = molecular target: T1, HDAC8 (Homo sapiens, UniProt Q9BY41); assay: HDAC enzymatic activity (Eurofins); assay type: biochemical; details: Class I; ACY-1083 mean of two separate measurements, Ricolinostat and Tubastatin A one measurement
T1 construct: purchased Eurofins Pharma Discovery Services 2247
T1 sequence (Q9BY41 1-377): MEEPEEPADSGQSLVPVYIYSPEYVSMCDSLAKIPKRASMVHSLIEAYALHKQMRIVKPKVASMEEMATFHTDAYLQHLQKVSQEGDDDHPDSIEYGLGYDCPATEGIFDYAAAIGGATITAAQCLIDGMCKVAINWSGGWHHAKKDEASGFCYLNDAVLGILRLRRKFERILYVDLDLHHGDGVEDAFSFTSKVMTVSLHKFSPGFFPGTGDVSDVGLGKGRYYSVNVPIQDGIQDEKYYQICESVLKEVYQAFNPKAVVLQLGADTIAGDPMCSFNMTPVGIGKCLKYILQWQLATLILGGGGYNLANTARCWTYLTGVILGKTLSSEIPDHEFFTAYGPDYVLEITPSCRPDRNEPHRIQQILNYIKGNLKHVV

HDAC9 = molecular target: T2, HDAC9 (Homo sapiens, UniProt Q9UKV0); assay: HDAC enzymatic activity (Eurofins); assay type: biochemical; details: Class IIA; ACY-1083 mean of two separate measurements, Ricolinostat and Tubastatin A one measurement
T2 construct: purchased Eurofins Pharma Discovery Services 2611
T2 sequence (Q9UKV0 whole entry): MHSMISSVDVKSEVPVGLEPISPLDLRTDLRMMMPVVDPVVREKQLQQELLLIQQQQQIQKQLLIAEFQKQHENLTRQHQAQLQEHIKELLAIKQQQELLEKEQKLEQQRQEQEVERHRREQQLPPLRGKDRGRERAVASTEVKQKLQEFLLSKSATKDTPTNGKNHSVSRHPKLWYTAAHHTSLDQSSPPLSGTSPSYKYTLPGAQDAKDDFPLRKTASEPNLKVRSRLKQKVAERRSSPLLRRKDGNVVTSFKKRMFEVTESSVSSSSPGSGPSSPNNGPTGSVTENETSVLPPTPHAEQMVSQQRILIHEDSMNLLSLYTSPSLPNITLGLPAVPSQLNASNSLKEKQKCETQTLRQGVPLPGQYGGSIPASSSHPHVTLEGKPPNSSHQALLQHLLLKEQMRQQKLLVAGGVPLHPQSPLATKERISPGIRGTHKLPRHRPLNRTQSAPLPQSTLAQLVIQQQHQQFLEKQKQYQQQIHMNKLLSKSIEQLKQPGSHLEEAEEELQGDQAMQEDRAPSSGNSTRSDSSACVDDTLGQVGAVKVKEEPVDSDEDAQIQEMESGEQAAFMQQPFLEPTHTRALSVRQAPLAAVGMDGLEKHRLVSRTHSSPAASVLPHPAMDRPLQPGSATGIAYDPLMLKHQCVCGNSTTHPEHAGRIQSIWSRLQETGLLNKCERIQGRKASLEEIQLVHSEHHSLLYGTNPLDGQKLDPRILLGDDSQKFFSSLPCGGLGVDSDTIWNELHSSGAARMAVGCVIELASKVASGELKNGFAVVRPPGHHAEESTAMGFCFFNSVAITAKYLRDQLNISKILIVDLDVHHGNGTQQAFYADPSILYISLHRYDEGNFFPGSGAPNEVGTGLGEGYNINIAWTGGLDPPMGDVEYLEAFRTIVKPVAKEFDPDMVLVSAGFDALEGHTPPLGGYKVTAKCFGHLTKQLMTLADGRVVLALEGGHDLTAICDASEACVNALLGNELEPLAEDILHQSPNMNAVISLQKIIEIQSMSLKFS

cyclooxygenase 2 (COX2) = molecular target: T3, cyclooxygenase 2 (COX2) (Homo sapiens, UniProt P35354); assay: Secondary pharmacology panel (Eurofins); assay type: biochemical
T3 construct: purchased Eurofins Pharma Discovery Services
T3 sequence (P35354 18-604): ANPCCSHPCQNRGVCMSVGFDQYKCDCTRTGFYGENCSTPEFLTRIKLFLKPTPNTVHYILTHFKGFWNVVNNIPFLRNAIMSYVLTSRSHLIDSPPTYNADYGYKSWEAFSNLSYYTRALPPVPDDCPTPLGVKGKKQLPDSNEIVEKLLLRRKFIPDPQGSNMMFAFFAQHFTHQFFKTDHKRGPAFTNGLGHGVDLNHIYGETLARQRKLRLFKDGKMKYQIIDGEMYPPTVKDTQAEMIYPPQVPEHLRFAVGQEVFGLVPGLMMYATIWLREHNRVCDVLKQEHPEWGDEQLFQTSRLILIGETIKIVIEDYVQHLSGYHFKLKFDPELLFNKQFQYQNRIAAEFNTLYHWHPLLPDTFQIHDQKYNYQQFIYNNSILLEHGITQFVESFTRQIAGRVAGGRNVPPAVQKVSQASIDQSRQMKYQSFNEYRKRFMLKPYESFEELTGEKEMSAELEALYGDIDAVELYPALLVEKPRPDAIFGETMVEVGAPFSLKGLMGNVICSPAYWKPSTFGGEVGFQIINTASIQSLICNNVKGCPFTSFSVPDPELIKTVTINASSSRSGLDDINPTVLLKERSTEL
Experimental: Second pharmacology screening was performed at Eurofins Pharma Discovery Services in a panel of 190 in vitro radioligand binding and enzyme assays covering a diverse set of enzymes, receptors, ion channels, and transporters.

IKs = molecular target: T4, IKs (Homo sapiens, UniProt P51787); assay: Cardiovascular ion channel panel, SyncroPatch 384PE patch clamp; assay type: cell-based; details: CHO K1 cell line, room temperature, 6 point cumulative assay
T4 construct: expressed in transfected cells; host or cells: Chinese hamster ovary K1 cell line

COPD HBEC ALI cultures [1] = assay: TNF challenge model in ALI, TEER and FITC-dextran permeability; assay type: cell-based, human; details: 10 μM, four COPD donors
COPD HBEC ALI cultures [2] = assay: Whole cigarette smoke (WCS) challenge in ALI, FITC-dextran permeability; assay type: cell-based, human; details: 10 μM started after first smoke exposure, 4 exposures in 2 days, all concentrations except the highest (1, 0.5 and 0.2 l/min dilution), one COPD donor, exploratory
Experimental: The paracellular permeability was determined by using fluorescein isothiocyanate labeled 4kD-dextran (Sigma-Aldrich, St. Louis, USA). 18 hours after addition of 0.2 mg FITC-dextran in 200 μL medium to the apical side of the ALI cultures, the fluorescence in the basolateral medium was measured using PHERAstar FSX (excitation 485 nm and emission 520 nm) (BMG LABTECH, Ortenberg, Germany). The time point was chosen for optimal window in the assays as well as practical reasons and has been kept consistent in between different stimulations throughout this work. Data was plotted as fold-change of 0.1% DMSO control.
Whole cigarette smoke (WCS) experiments were performed using the Smoking Robot VC 10® S-TYPE (Vitrocell, Waldkirch, Germany). The Vitrocell smoke robot delivers either WCS or humidified air to the apical surface of the cell layers. Briefly, inserts with fully differentiated HBEC in ALI from one COPD donor were placed in the Vitrocell smoke chamber filled with DMEM medium (Thermo Fisher Scientific) and CS or humidified air was puffed onto the apical surface. ISO Puff Standard was used with each CS exposure consisting of two 3R4F Kentucky research cigarettes (one 35 ml puff every 60 seconds). Cells were exposed to WCS four times during two days with a minimum of two hours elapsed between smoke exposures. […] Permeability was measured 20 hours after the last smoke session.

Haemophilus influenzae = assay: Pilot test of bactericidal effect, bacteria in media; assay type: cell-based; details: bacteria suspended in media incubated for one hour with ACY-1083, pilot experiment
COPD HBEC ALI cultures [3] = assay: RNA analysis (qPCR), TNF challenge; assay type: cell-based, human
Experimental: TEER and permeability were measured after seven days.
To study transcriptional changes, RNA purification was carried out using the RNeasy Plus 96 kit (74192) (Qiagen, Venlo, The Netherlands) according to manufacturer’s protocol. The liquid was collected and frozen at –80°C until further analysis. RNA was quantified and cDNA synthesis was performed according to standard procedures using High-capacity cDNA Reverse Transcription Kit (4368813) (ThermoFisher, Waltham, MA, US). Real-time polymerase chain reaction (qPCR) was done using validated TaqMan® Gene Expression Assays (ThermoFisher, Waltham, MA, US), IL8 (Hs00174103_m1), CCL2 (Hs00234140_m1), CXCL10 (Hs00171042_m1), MMP9 (Hs00957562_m1), IL1B (Hs01555410_m1), MUC5AC (Hs01365616_m1), MUC5B (Hs00861595_m1) with TaqMan Fast Advanced Master Mix (4444557) (Applied Biosystems, Foster City, CA, US). Samples were run in triplicates and analyzed on the QuantStudio^TM 7 Flex Real-Time PCR 384-well System (ThermoFisher Waltham, MA, US). Data was normalized to the housekeeping genes GAPDH (Hs99999905_m1), and RPLP0 (Hs99999902_m1) and delta-delta CT values were plotted (fold change to DMSO).

[4] = test system: healthy HBEC at ALI cultures; assay: TEER in healthy HBEC ALI cultures, TNF challenge; assay type: cell-based, human; details: TNF-challenged healthy HBEC, p = 0.0187
[5] = high concentrations of TNF, 8 days
[6] = unchallenged cells and 5 ng/ml TNF

Substance: ACY-1083
- IC50 (HDAC8): 15.8 µM
- IC50 (HDAC9): 19.3 µM
- IC50 (cyclooxygenase 2 (COX2)): 6.48 µM
- activity on IKs (IKs): > 30 µM
- TEER vs DMSO control (COPD HBEC ALI cultures [1]; TNF 0, 5, 20 and 50 ng/mL, after seven days): higher TEER at all concentrations of TNF
- paracellular permeability vs DMSO control (COPD HBEC ALI cultures [1]; TNF 5, 20 and 50 ng/mL): lower permeability at 5, 20 and 50 ng/mL TNF
- paracellular permeability after WCS challenge (COPD HBEC ALI cultures [2]): decrease permeability
- bactericidal effect (bacterial counts) (Haemophilus influenzae): no effect on bacterial counts
- CXCL10 transcripts (COPD HBEC ALI cultures [3]; [5]): significantly reduced
- IL1B transcripts (COPD HBEC ALI cultures [3]; [5]): significantly reduced
- IL6 transcripts (COPD HBEC ALI cultures [3]; [5]): significantly reduced
- MMP9 transcripts (COPD HBEC ALI cultures [3]; [5]): significantly reduced
- MUC5AC mRNA (COPD HBEC ALI cultures [3]; higher concentrations of TNF): no significant effect
- MUC5B mRNA (COPD HBEC ALI cultures [3]; higher concentrations of TNF): no significant effect
- MUC5AC mRNA (COPD HBEC ALI cultures [3]; [6]): reduced baseline production
- MUC5B mRNA (COPD HBEC ALI cultures [3]; [6]): reduced baseline production
- TEER [4]: reversed this decrease
